Laboratory results taken from ChEMBL document CHEMBL5291721, “A preclinical secondary pharmacology resource illuminates target-adverse drug reaction associations of marketed drugs” (Nat Commun, 2023).
Blank lines part the entries; values can stand above or below the molecule they belong to.

Legend:
[1] = biological target: T1, Alpha-1A adrenergic receptor (Homo sapiens, UniProt P35348); assay type: functional, cell-based
T1 sequence (P35348 whole entry): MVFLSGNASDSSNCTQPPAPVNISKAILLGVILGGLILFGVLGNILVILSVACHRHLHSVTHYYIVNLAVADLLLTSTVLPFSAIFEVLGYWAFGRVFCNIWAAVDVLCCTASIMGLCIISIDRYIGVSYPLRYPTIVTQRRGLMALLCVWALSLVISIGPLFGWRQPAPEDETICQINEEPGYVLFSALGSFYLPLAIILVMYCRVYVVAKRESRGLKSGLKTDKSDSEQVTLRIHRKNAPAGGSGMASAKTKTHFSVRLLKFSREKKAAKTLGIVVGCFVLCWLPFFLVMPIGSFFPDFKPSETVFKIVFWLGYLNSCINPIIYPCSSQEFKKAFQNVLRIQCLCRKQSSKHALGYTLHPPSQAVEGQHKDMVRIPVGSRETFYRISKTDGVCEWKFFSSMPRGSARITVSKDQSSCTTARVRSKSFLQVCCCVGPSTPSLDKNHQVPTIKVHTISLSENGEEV

[2] = biological target: T1, Alpha-1A adrenergic receptor; assay type: functional, cell-based; remark: listed apart in the source
[3] = biological target: Gamma-aminobutyric acid receptor subunit alpha-1 (Rattus norvegicus, UniProt P62813)
[4] = biological target: T1, Alpha-1A adrenergic receptor; assay type: functional, cell-based; remark: listed apart in the source
[5] = biological target: D(1A) dopamine receptor (Homo sapiens, UniProt P21728); assay type: functional, cell-based
[6] = biological target: Adenosine receptor A2a (Homo sapiens, UniProt P29274)
[7] = biological target: Sodium-dependent dopamine transporter (Homo sapiens, UniProt Q01959)
[8] = biological target: Delta-type opioid receptor (Homo sapiens, UniProt P41143)
[9] = biological target: 5-hydroxytryptamine receptor 2B (Homo sapiens, UniProt P41595); assay type: functional, cell-based
[10] = biological target: Histamine H2 receptor (Homo sapiens, UniProt P25021); assay type: functional, cell-based
[11] = biological target: T2, Thromboxane A2 receptor (Homo sapiens, UniProt P21731)
T2 sequence (P21731 whole entry): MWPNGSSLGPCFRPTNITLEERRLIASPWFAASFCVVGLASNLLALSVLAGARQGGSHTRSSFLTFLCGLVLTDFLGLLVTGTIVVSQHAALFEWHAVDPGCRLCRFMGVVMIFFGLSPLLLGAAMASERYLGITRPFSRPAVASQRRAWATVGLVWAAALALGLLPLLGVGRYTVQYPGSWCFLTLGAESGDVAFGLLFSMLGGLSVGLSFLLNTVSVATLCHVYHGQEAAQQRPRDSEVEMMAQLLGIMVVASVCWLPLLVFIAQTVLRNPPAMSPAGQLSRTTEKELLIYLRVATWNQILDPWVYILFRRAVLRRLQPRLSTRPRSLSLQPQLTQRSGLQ

[12] = biological target: T3, Gastrin/cholecystokinin type B receptor (Homo sapiens, UniProt P32239)
T3 sequence (P32239 whole entry): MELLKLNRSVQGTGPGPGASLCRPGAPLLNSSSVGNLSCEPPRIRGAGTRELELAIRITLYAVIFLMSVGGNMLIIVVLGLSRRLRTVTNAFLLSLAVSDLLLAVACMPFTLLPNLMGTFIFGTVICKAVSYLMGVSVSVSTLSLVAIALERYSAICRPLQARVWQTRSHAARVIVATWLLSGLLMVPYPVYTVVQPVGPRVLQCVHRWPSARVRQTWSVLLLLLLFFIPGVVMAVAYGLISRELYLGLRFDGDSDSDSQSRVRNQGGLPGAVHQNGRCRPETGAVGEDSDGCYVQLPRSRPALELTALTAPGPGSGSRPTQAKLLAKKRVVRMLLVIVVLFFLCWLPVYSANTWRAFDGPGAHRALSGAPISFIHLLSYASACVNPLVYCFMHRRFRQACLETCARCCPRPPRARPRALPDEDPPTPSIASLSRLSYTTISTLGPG

[13] = biological target: T4, 5-hydroxytryptamine receptor 2C (Homo sapiens, UniProt P28335)
T4 sequence (P28335 whole entry): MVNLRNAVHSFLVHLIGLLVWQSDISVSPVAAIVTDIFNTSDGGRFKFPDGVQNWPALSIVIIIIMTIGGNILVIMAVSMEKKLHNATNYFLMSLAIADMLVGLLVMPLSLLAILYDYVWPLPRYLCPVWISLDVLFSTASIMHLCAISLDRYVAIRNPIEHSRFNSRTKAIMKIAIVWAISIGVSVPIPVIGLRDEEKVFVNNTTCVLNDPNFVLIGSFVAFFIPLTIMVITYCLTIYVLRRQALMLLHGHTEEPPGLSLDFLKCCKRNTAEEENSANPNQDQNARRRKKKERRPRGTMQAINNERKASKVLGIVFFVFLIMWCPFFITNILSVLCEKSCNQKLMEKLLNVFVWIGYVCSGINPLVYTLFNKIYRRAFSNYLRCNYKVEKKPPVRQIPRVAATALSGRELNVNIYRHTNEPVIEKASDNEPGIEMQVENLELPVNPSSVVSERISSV

[14] = biological target: Glutamate receptor ionotropic, NMDA 1 (Rattus norvegicus, UniProt P35439)
[15] = biological target: T5, 5-hydroxytryptamine receptor 1A (Homo sapiens, UniProt P08908); assay type: functional, cell-based
T5 sequence (P08908 whole entry): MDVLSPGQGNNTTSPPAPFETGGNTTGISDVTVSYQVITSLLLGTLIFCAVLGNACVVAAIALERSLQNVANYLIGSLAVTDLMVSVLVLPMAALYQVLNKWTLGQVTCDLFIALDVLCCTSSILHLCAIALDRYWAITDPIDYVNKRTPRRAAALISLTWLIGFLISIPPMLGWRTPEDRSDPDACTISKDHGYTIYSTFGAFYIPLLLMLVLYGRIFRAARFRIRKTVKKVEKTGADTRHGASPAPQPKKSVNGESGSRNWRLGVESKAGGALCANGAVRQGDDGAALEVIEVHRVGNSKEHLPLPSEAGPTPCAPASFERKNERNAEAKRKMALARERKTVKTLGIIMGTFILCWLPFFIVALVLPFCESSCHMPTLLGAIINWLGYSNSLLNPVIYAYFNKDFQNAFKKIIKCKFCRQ
Note: assay procedure not described here.

Sequence of D(1A) dopamine receptor (P21728 whole entry): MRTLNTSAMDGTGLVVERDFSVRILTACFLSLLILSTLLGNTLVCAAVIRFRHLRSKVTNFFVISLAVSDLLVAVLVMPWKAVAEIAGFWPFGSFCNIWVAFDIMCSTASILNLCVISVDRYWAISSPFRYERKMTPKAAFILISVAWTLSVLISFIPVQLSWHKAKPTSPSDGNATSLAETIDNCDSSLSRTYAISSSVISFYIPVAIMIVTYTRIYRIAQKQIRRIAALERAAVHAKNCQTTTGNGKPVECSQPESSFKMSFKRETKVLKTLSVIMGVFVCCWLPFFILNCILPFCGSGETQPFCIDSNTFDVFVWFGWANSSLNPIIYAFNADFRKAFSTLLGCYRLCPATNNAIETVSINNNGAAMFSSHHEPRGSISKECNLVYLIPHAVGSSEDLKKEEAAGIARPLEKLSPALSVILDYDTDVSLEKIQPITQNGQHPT
Sequence of Gamma-aminobutyric acid receptor subunit alpha-1 (P62813 whole entry): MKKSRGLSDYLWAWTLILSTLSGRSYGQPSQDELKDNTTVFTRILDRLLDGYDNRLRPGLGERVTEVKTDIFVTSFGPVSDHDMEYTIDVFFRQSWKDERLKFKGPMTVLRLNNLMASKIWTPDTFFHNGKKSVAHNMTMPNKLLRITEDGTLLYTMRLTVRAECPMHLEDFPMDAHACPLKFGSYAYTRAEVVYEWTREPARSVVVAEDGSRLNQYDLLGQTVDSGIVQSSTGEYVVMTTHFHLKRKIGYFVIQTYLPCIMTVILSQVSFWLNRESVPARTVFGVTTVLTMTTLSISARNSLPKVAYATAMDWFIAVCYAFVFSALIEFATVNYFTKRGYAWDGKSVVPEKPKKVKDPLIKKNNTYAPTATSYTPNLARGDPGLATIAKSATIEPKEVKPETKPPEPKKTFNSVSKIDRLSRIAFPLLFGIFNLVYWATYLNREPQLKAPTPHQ
Sequence of Delta-type opioid receptor (P41143 whole entry): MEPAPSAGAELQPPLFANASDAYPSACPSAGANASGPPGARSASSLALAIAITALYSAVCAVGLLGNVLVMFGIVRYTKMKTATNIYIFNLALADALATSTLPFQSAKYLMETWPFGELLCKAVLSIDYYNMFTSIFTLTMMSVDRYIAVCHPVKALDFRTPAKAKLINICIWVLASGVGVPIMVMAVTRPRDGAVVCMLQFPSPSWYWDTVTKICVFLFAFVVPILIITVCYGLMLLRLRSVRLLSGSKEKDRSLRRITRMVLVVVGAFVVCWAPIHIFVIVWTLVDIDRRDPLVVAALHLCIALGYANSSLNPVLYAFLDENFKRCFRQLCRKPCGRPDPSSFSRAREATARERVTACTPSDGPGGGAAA
Sequence of Histamine H2 receptor (P25021 whole entry): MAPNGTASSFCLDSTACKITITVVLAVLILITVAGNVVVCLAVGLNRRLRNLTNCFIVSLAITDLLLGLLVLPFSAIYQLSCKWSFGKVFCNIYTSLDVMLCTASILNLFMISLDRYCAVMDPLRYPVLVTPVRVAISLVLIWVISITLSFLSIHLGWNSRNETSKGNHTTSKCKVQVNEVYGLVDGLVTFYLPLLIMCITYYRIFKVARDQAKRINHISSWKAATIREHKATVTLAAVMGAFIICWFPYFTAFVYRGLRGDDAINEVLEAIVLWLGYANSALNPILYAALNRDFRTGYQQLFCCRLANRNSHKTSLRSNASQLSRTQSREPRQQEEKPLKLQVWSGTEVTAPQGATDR
Sequence of Adenosine receptor A2a (P29274 whole entry): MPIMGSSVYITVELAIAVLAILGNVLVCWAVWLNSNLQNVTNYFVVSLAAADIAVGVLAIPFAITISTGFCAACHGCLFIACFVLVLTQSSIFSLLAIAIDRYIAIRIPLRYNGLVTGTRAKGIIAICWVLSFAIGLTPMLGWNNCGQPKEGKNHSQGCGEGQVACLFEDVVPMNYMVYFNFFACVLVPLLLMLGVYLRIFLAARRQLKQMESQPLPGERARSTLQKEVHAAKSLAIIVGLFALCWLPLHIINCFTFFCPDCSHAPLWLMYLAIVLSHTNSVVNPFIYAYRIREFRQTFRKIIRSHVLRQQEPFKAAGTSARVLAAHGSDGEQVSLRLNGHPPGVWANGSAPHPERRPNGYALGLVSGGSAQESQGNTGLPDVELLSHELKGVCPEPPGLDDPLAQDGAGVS
Sequence of Sodium-dependent dopamine transporter (Q01959 whole entry): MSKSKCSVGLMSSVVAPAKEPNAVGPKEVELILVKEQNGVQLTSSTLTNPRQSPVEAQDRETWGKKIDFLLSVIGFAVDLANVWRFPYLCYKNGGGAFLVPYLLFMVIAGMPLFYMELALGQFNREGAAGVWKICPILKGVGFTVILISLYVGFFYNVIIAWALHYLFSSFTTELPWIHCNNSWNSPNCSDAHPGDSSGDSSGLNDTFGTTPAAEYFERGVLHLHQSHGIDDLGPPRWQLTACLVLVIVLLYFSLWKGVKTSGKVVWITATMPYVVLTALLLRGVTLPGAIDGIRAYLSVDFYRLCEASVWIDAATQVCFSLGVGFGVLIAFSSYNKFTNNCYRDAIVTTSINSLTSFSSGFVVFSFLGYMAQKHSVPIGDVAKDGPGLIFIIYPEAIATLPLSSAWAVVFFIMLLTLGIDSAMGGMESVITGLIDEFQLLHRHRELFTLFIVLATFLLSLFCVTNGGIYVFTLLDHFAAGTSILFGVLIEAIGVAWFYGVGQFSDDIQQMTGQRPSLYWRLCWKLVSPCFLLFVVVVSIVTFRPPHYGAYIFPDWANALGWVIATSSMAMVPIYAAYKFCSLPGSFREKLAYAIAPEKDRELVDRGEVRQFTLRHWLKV
Sequence of 5-hydroxytryptamine receptor 2B (P41595 whole entry): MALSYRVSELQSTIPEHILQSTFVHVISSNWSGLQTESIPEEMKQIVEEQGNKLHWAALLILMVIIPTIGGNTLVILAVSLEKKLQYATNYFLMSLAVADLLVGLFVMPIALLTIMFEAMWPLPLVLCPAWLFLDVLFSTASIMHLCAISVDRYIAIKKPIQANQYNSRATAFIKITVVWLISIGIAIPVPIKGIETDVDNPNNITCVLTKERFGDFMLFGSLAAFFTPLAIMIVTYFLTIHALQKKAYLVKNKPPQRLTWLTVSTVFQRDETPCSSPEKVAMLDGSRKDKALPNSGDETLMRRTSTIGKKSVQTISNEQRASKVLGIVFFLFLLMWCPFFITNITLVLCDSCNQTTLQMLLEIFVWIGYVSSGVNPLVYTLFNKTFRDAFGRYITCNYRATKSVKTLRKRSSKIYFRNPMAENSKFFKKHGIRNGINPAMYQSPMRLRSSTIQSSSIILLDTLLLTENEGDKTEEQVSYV

SMILES: CC[C@@H]1C[C@]1(NC(=O)[C@@H]1C[C@@H]2CN1C(=O)[C@H](C(C)(C)C)NC(=O)OCC(C)(C)CCCCc1cccc3c1CN(C3)C(=O)O2)C(=O)NS(=O)(=O)C1CC1
AC50 [1]: > 3 µM

SMILES: CC(=O)NO [ACETOHYDROXAMIC ACID]
AC50 [1]: > 30 µM

AC50 [2]: > 30 µM
AC50 [3]: > 30 µM
AC50 [4]: > 30 µM
AC50 [5]: > 30 µM
AC50 [6]: > 30 µM
AC50 [7]: > 30 µM
AC50 [8]: > 30 µM
AC50 [9]: > 30 µM
AC50 [10]: > 30 µM
AC50 [11]: > 30 µM
AC50 [12]: > 30 µM
AC50 [13]: > 30 µM
AC50 [14]: > 30 µM
AC50 [15]: > 30 µM
SMILES: CC(=O)Nc1ccc(CC(=O)O)cc1 [ACTARIT]

SMILES: C=C(C)CNc1ccc(C(C)C(=O)O)cc1 (configuration not stated) [ALMINOPROFEN]
AC50 [1]: > 30 µM

SMILES: C[C@H]1CN(C[C@H](Cc2ccccc2)C(=O)NCC(=O)O)CC[C@@]1(C)c1cccc(O)c1 [ALVIMOPAN]
AC50 [1]: > 30 µM

AC50 [2]: 23 µM
AC50 [3]: > 30 µM
AC50 [4]: > 30 µM
AC50 [5]: > 30 µM
AC50 [6]: > 30 µM
AC50 [7]: > 30 µM
AC50 [8]: > 30 µM
AC50 [9]: > 30 µM
AC50 [10]: > 30 µM
AC50 [11]: > 30 µM
AC50 [12]: > 10 µM
AC50 [13]: > 30 µM
AC50 [14]: > 30 µM
AC50 [15]: > 30 µM
SMILES: CC(C(=O)O)c1ccc2oc(-c3ccc(Cl)cc3)nc2c1 (configuration not stated) [BENOXAPROFEN]

SMILES: O=C(O)c1ccccc1 [BENZOIC ACID]
AC50 [1]: > 30 µM

SMILES: Nc1c(CC(=O)O)cccc1C(=O)c1ccc(Br)cc1 [BROMFENAC]
AC50 [1]: > 30 µM

AC50 [2]: > 30 µM
AC50 [3]: > 30 µM
AC50 [4]: > 30 µM
AC50 [5]: > 30 µM
AC50 [6]: > 30 µM
AC50 [7]: > 30 µM
AC50 [8]: > 30 µM
AC50 [9]: > 30 µM
AC50 [10]: > 30 µM
AC50 [11]: > 30 µM
AC50 [12]: > 30 µM
AC50 [13]: > 30 µM
AC50 [14]: > 30 µM
AC50 [15]: > 30 µM
SMILES: CC=CC1=C(C(=O)O)N2C(=O)[C@@H](NC(=O)[C@H](N)c3ccc(O)cc3)[C@H]2SC1 [CEFPROZIL]

SMILES: Cc1cc(C2CCCCC2)n(O)c(=O)c1 [CICLOPIROX]
AC50 [2]: > 30 µM
AC50 [4]: > 30 µM
AC50 [6]: > 30 µM
AC50 [7]: > 30 µM

SMILES: C[C@H]1O[C@@H](O[C@H]2CC[C@@]3(C)[C@H](CC[C@@H]4[C@@H]3C[C@@H](O)[C@]3(C)[C@@H](C5=CC(=O)OC5)CC[C@]43O)C2)C[C@H](O)[C@@H]1O[C@H]1C[C@H](O)[C@H](O[C@H]2C[C@H](O)[C@H](O[C@@H]3O[C@H](CO)[C@@H](O)[C@H](O)[C@H]3O)[C@@H](C)O2)[C@@H](C)O1 [DESLANOSIDE]
AC50 [1]: > 30 µM

SMILES: CC[C@H]1OC(=O)[C@H](C)[C@@H](O[C@H]2C[C@@](C)(OC)[C@@H](O)[C@H](C)O2)[C@H](C)[C@@H](O[C@@H]2O[C@H](C)C[C@H](N(C)C)[C@H]2O)[C@](C)(O)C[C@@H](C)[C@@H]2N[C@@H](COCCOC)O[C@H]([C@H]2C)[C@]1(C)O [DIRITHROMYCIN]
AC50 [1]: > 30 µM

SMILES: CCCCc1oc2ccc(NS(C)(=O)=O)cc2c1C(=O)c1ccc(OCCCN(CCCC)CCCC)cc1 [DRONEDARONE]
AC50 [1]: 5.92 µM

AC50 [6]: > 30 µM
AC50 [7]: > 30 µM
AC50 [8]: > 30 µM
AC50 [9]: > 30 µM
AC50 [13]: > 30 µM
SMILES: CNC[C@H](O)c1ccc(O)c(O)c1 [EPINEPHRINE]

SMILES: CC(C(=O)O)c1cccc(Oc2ccccc2)c1 (configuration not stated) [FENOPROFEN]
AC50 [1]: > 30 µM

SMILES: CC(C)C(=O)Oc1ccc(CO)cc1[C@H](CCN(C(C)C)C(C)C)c1ccccc1 [FESOTERODINE]
AC50 [1]: > 30 µM
